Measurements taken from patent US20250177383A1, “DI-CYCLOPROPYL BASED IL-17A MODULATORS AND USES THEREOF” (DICE ALPHA, INC., priority 2022, published 2025).

What was measured:
[1] = Microsomal stability, rat liver microsomes; type: in vitro ADME; conditions: SD rat liver microsomes 0.5 mg protein/mL, 1 μM test compound, NADPH, 37° C., 60 min; read-out: RLM Clint
Experimental: (§1) Test compound and control working solution preparation. 5 μL of a compound and control stock solution (10 mM in dimethyl sulfoxide (DMSO)) were diluted with 495 μL of acetonitrile (ACN).
(§2) NADPH cofactor preparation. The appropriate amount of NADPH powder was weighed and diluted into a 10 mM MgCl2 solution (working solution concentration: 10 mM; final concentration in reaction system: 1 mM). Materials: NADPH powder: β-Nicotinamide adenine dinucleotide phosphate reduced form, tetrasodium salt; NADPHA4Na (Vendor: Chem-Impex International, Cat. No. 00616).
(§3) Liver Microsome Preparation. The appropriate concentrations of microsome working solutions were prepared in 100 mM potassium phosphate buffer. Materials: Human Liver Microsomes (HLM) Cat No. 452117 and Lot No. 38295 (Corning); SD Rat Liver Microsomes (RLM) Cat No. R1000 and Lot No. 1910100 (Xenotech).
(§4) Stop solution preparation. Cold (4° C.) acetonitrile (ACN) containing 200 ng/mL tolbutamide and 200 ng/mL labetalol as internal standards (IS) were used as the stop solution.
(§5) Assay Procedure. Empty incubation plates (T60 and NCF60) were warmed for 10 mins prior to use. Liver microsomes were diluted to 0.56 mg/mL in 100 mM phosphate buffer. 445 uL microsome working solutions (0.56 mg/mL) were transferred into pre-warmed ‘Incubation’ plates T60 and NCF60, Then ‘Incubation’ plates T60 and NCF60 were pre-incubated for 10 min at 37° C. with constant shaking. 54 μL liver microsomes were transferred to the blank plate, then 6 μL NAPDH cofactor were added to the blank plate, followed by the addition 180 μL quenching solution to the blank plate. 5 μL compound working solution (100 μM) were added into ‘incubation’ plates (T60 and NCF60) containing microsomes and mixed thoroughly 3 times. To the NCF60 plate 50 μL of buffer were added and mixed 3 times thoroughly. Start timing; plate was incubated at 37° C. for 60 min while shaking. In ‘Quenching’ plate TO, were added 180 μL quenching solution and 6 μL NAPDH cofactor. Plate is chilled to prevent evaporation. The T60 plate, was mixed 3 times thoroughly, and immediately 54 μL of the mixture was removed for the 0-min time point to ‘Quenching’ plate. Then 44 μL NAPDH cofactor was added to the incubation plate (T60). Start timing; plate was incubated at 37° C. for 60 min while shaking. Final concentrations of each component in the incubation media: Microsome (0.5 mg protein/mL); Test compound (1 μM); control compound ([…]); ACN (0.99%); and DMSO (0.01%). At 5, 15, 30, 45, and 60 min, 180 μL quenching solution was added to ‘Quenching’ plates, mixed once, and serially transferred 60 μL of sample from T60 plate per time point to ‘Quenching’ plates. For the NCF60 plate, mix once and 60 μL of sample was transferred from the NCF60 incubation to ‘Quenching’ plate containing quenching solution at the 60-min time point (Start time 1:00:00 and End Time 0:00:00).
(§6) All sampling plates were shaken for 10 min, then centrifuged at 4000 rpm for 20 minutes at 4° C. 80 μL of supernatant were transferred into 240 μL HPLC water, and mixed by plate shaker for 10 min. Each bioanalysis plate was sealed and shaken for 10 minutes prior to LC-MS/MS analysis.

[2] = Microsomal stability, human liver microsomes; type: in vitro ADME; conditions: human liver microsomes 0.5 mg protein/mL, 1 μM test compound, NADPH, 37° C., 60 min; read-out: HLM Clint
Experimental: as §1, §2, §3, §4, §5, §6

[3] = Rat pharmacokinetics, PO; type: in vivo; conditions: male rat, PO 5 mg/kg oral gavage, plasma, Linear/log trapezoidal; read-out: Rat PO AUC0-t
Experimental: Formulations for PO. An appropriate amount of the test article is weighed and mixed with the appropriate volume of vehicle to get a clear solution or a uniform suspension, vortexing or sonication in water bath may used. Animals are dosed within four hours after the formulation is prepared.
Formulation samples are removed from each of the formulation solutions or suspensions, transferred into 1.5 mL of polypropylene microcentrifuge tubes and run dose validated by LC/UV or LC-MS/MS.
Dose administration. For PO dosing, the dose formulation is administered via oral gavage.
Blood Collection. Each blood collection (about 0.2 mL per time point) is performed from carotid artery cannula (CAC) of each animal into a pre-chilled commercial EDTA-K2 tubes as anti-coagulant, then placed on wet ice until centrifugation. Blood samples are processed for plasma by centrifugation at approximately 4° C., 3,200 g for 10 min. Plasma is collected respectively and a certain amount of plasma from rat is transferred into pre-labeled 96 well plate or polypropylene tubes, quick frozen over dry ice and kept at −60° C. or lower until LC-MS/MS analysis. After terminal collection, all plasmas are stored at approximately −80° C. freezer until final analysis.
Plasma concentration versus time data are plotted in graph and analyzed by non-compartmental approaches using the Phoenix WinNonlin 6.3 software program. Trapezoids: Before TMax (Linear); After Tmax (Log). Partial Area Interpolations: Before TMax (Linear); After Tmax (Log).

[4] = molecular target: T1, IL-17A/A (Homo sapiens, UniProt Q16552); assay: IL-17A/A HEK-Blue Cell Assay; type: cell-based; conditions: HEK-Blue IL-17 reporter cells, IL-17A/A stimulation, 20 hours, SEAP readout; read-out: IL17 AA HEK-5 pIC50 (converted)
T1 sequence (Q16552 24-155): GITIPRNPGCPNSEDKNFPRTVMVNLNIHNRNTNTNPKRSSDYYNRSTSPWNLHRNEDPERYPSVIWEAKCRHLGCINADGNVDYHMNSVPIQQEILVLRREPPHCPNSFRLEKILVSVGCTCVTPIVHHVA
How it was run: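 Cells co-expressing IL-17RA, IL-17RC and Act1 received titrated compound, top final 10 uM in 0.1% DMSO, immediately before IL-17A/A stimulation.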

[5] = molecular target: T2, IL-17A/F (Homo sapiens, UniProt Q16552+Q96PD4); assay: IL-17A/F HEK-Blue Cell Assay; type: cell-based; conditions: HEK-Blue IL-17 reporter cells, IL-17A/F stimulation, 20 hours, SEAP readout; read-out: IL17AF HEK Blue pIC50 (converted)
T2 sequence (Q16552 24-155): T1 sequence (Q16552 24-155)
T2 sequence (Q96PD4 31-163): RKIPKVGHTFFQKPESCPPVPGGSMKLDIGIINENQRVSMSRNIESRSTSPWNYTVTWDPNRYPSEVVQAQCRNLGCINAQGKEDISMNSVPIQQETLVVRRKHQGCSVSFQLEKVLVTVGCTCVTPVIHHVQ

Row | Compound | microsomal CLint at 1 μM [1] | microsomal CLint at 1 μM [2] | AUC(0-t) [3] | IC50 [4] | IC50 [5]
1 | CCC(=O)N[C@@H](C(=O)N1C[C@@H](C)N(C)C[C@H]1C)[C@@H](C)c1ccc(NC(=O)[C@@H](NC(=O)c2ccnn2CC)[C@H]2CC[C@H](C)CC2)c(F)c1 [A, reference compound] | > 20 µL/min/mg | 50 to 150 µL/min/mg | 500 to 1000 ng·h/mL |  | 
2 | CCn1nccc1C(=O)N[C@H](C(=O)Nc1ccc([C@H](C)[C@@H](NC(=O)COC)C(=O)N2CCN(C)[C@@H](CF)C2)cc1F)[C@H]1CC[C@H](C)CC1 [B, reference compound] | 9.6 to 20 µL/min/mg | 50 to 150 µL/min/mg | < 500 ng·h/mL |  | 
3 | CCn1nccc1C(=O)N[C@H](C(=O)Nc1ccc([C@H](C)[C@@H](NC(C)=O)C(=O)N2CCN(C)[C@H](C)C2)cc1F)[C@H]1CC[C@H](C)CC1 [C, reference compound] | > 20 µL/min/mg | > 150 µL/min/mg | < 500 ng·h/mL |  | 
4 | CCc1nonc1C(=O)N[C@H](C(=O)Nc1ccc([C@H](C)[C@@H](NC(C)=O)C(=O)N2CCN(C)[C@H](C)C2)cc1F)C(C1CC1)C1CC1 [Compound 214] | 9.6 to 20 µL/min/mg | 50 to 150 µL/min/mg | < 500 ng·h/mL | < 10 nM | 
5 | CCC(=O)N[C@@H](C(=O)N1CCN(C)[C@H](C)C1)[C@@H](C)c1ccc(NC(=O)[C@@H](NC(=O)c2ccnn2CCF)C(C2CC2)C2CC2)c(F)c1 [Compound 217] | < 9.6 µL/min/mg | < 50 µL/min/mg | < 500 ng·h/mL | < 10 nM | 
6 | CCC(=O)N[C@@H](C(=O)N1C[C@@H](C)N(C)[C@@H](C)C1)[C@@H](C)c1ccc(NC(=O)[C@@H](NC(=O)c2ccnn2CC)C(C2CC2)C2CC2)c(F)c1 [Compound 223] | 9.6 to 20 µL/min/mg | 50 to 150 µL/min/mg | < 500 ng·h/mL | < 10 nM | 
7 | CCn1nccc1C(=O)N[C@H](C(=O)Nc1ccc([C@H](C)[C@@H](NC(=O)N(C)C2CC2)C(=O)N2CCN(C)CC2)cc1F)C(C1CC1)C1CC1 [Compound 225] | > 20 µL/min/mg | 50 to 150 µL/min/mg | < 500 ng·h/mL | < 10 nM | 
8 | CCOC(=O)N[C@@H](CF)C(=O)N[C@@H](C(=O)N1CCN(C)CC1)[C@@H](C)c1ccc(NC(=O)[C@@H](NC(=O)C2(F)CC2)C(C2CC2)C2CC2)c(F)c1 [Compound 359] |  |  |  | < 10 nM | 100 to 10000 nM
9 | CCOC(=O)N[C@@H](CF)C(=O)N[C@@H](C(=O)N1CCN(C)CC1)[C@@H](C)c1ccc(NC(=O)[C@@H](NC(=O)c2nonc2C)C(C2CC2)C2CC2)c(F)c1 [Compound 360] |  |  |  | < 10 nM | 10 to 100 nM
10 | CCOC(=O)N[C@@H](C)C(=O)N[C@@H](C(=O)N1CCN(C)CC1)[C@@H](C)c1ccc(NC(=O)[C@@H](NC(=O)c2nonc2C)C(C2CC2)C2CC2)c(F)c1 [Compound 361] |  |  |  | < 10 nM | 10 to 100 nM

The next lines start with the values.

Row | microsomal CLint at 1 μM [1] | microsomal CLint at 1 μM [2] | AUC(0-t) [3] | IC50 [4] | IC50 [5] | Compound
11 |  |  |  | < 10 nM | 10 to 100 nM | CCOC(=O)N[C@@H](CF)C(=O)N[C@@H](C(=O)N1CCN(C)[C@H](C)C1)[C@@H](C)c1ccc(NC(=O)[C@@H](NC(=O)c2nonc2C)C(C2CC2)C2CC2)c(F)c1 [Compound 363]
12 | 9.6 to 20 µL/min/mg | 50 to 150 µL/min/mg | 500 to 1000 ng·h/mL |  |  | CCn1nccc1C(=O)N[C@H](C(=O)Nc1ccc([C@H](C)[C@@H](NC(=O)COC)C(=O)N2CCN(C)[C@H](C)C2)cc1F)[C@H]1CC[C@H](C)CC1 [D, reference compound]
13 | 9.6 to 20 µL/min/mg | > 150 µL/min/mg | 500 to 1000 ng·h/mL |  |  | CCC(=O)N[C@@H](C(=O)N1CCN(C)[C@H](C)C1)[C@@H](C)c1ccc(NC(=O)[C@@H](NC(=O)c2ccnn2CC(F)F)[C@H]2CC[C@H](C)CC2)c(F)c1 [E, reference compound]
14 | 9.6 to 20 µL/min/mg | 50 to 150 µL/min/mg | 500 to 1000 ng·h/mL |  |  | CCC(=O)N[C@@H](C(=O)N1CCN(C)[C@H](C)C1)[C@@H](C)c1ccc(NC(=O)[C@@H](NC(=O)c2ccnn2CCF)[C@H]2CC[C@H](C)CC2)c(F)c1 [F, reference compound]
15 | > 20 µL/min/mg | > 150 µL/min/mg | 500 to 1000 ng·h/mL |  |  | CCC(=O)N[C@@H](C(=O)N1CCN(C)[C@H](C)C1)[C@@H](C)c1ccc(NC(=O)[C@@H](NC(=O)c2ccnn2CC)[C@H]2CC[C@H](C)CC2)c(F)c1 [G, reference compound]
16 | 9.6 to 20 µL/min/mg | 50 to 150 µL/min/mg | < 500 ng·h/mL |  |  | CCC(=O)N[C@@H](C(=O)N1CCN(C)[C@H](C)C1)[C@@H](C)c1ccc(NC(=O)[C@@H](NC(=O)C2(F)CC2)[C@H]2CC[C@H](C)CC2)c(F)c1 [H, reference compound]
17 | 9.6 to 20 µL/min/mg | > 150 µL/min/mg | < 500 ng·h/mL |  |  | CCC(=O)N[C@@H](C(=O)N1CCN(C)[C@@H](C)C1)[C@@H](C)c1ccc(NC(=O)[C@@H](NC(=O)c2ccnn2CC)[C@H]2CC[C@H](C)CC2)c(F)c1 [I, reference compound]
18 | > 20 µL/min/mg | > 150 µL/min/mg | < 500 ng·h/mL |  |  | CCn1nccc1C(=O)N[C@H](C(=O)Nc1ccc([C@H](C)[C@@H](NC(=O)N(C)C2CC2)C(=O)N2CCN(C)CC2)cc1F)[C@H]1CC[C@H](C)CC1 [J, reference compound]
19 | < 9.6 µL/min/mg | > 150 µL/min/mg | 500 to 1000 ng·h/mL |  |  | CCn1nccc1C(=O)N[C@H](C(=O)Nc1ccc([C@H](C)[C@@H](NC(=O)COC)C(=O)N2CCN(C)CC2)cc1F)[C@H]1CC[C@H](C)CC1 [K, reference compound]
20 | 9.6 to 20 µL/min/mg | > 150 µL/min/mg | 500 to 1000 ng·h/mL |  |  | CCC(=O)N[C@@H](C(=O)N1CCN(C)CC1)[C@@H](C)c1ccc(NC(=O)[C@@H](NC(=O)c2ccnn2C(C)C)[C@H]2CC[C@H](C)CC2)c(F)c1 [L, reference compound]
